In patent publication US9868737B2, “Pyridino[1,2-A]pyrimidone analogue used as MTOR/P13K inhibitor” (CISEN PHARMACEUTICAL CO., LTD., priority 2014, dated 2018):
Read-outs that look alike come from different tables or passages of the source.

Assays:
MCF-7 cells = assay: In vitro test of cell activity (MCF-7 cells, insulin stimulation, ELISA-One fluorescence); format: cell-based; conditions: Homo sapiens, MCF7, MCF-7 cells; for inhibition at 0.5 µM: conc. 0.5 μM; for inhibition at 0.25 µM: conc. 0.25 μM; for inhibition at 1 µM: conc. 1 μM
Summary of the method: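 Fluorescence ELISA-One read-out on cell lysates, antibody-captured 1 h at room temperature. Before lysis, MCF-7 cells (2.5×10^4/well) were pretreated 2 h with compound in serum-free medium, single dose for screening or a dilution series for IC50, then stimulated 30 min with insulin ([…] final).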

PI3K (p110α) kinase = molecular target: T1, PI3K (p110α) kinase (Homo sapiens, UniProt P42336); assay: PI3K (p110α) kinase assay (PI3K HTRF Assay); format: biochemical; conditions: in vitro enzyme activity assay, 10 μM PIP2, read-out: PI3K (p110α) enzyme activity_IC50
T1 construct: made in house
T1 sequence (P42336 whole entry): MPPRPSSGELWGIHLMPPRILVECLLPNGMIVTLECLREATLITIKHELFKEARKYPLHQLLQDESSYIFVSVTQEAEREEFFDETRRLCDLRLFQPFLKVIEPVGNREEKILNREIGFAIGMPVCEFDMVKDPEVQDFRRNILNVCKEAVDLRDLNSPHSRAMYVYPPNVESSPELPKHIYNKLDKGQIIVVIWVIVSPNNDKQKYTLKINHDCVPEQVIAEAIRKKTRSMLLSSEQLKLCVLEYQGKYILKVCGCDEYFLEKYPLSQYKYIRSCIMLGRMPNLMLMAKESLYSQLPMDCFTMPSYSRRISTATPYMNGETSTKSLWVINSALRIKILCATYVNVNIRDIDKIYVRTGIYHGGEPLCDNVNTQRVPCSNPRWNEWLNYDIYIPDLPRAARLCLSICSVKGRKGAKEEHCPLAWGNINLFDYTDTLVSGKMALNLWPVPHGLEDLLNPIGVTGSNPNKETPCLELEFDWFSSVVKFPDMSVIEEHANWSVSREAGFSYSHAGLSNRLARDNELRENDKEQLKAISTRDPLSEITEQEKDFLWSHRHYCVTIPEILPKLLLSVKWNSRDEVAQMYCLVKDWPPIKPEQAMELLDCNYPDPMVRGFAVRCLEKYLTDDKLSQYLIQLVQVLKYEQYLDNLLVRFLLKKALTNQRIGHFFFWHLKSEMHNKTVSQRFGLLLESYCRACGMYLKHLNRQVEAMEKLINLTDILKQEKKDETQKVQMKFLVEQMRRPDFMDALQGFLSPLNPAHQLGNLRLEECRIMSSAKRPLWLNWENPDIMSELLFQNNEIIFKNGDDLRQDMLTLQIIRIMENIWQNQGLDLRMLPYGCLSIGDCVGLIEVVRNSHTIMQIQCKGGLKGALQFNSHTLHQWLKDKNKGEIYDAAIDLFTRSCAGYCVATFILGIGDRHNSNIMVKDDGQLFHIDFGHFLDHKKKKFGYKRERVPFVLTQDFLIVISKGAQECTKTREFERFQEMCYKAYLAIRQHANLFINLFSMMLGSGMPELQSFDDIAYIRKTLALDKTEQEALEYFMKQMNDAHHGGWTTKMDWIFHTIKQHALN
From the text: Conclusion: The compounds of the present invention have significant inhibitory effect on mTOR/PI3K. Example In Vitro Enzyme Activity Assay 1. The experimental procedures and methods of PI3K (p110α) kinase assay: 1) Experimental Objective
The objective was to evaluate the inhibitory effect of the subject samples on PI3K (p110α) kinase activity at molecular level.
(§1) PerkinElmer Envision 2104 Multilabel Reader.
PI 3-Kinase HTRF Assay (384 wells) was purchased from Upstate (Millipore) company: PI3K (p110α) kinase was made in our lab.
c) Experimental procedures
Each solution was prepared according to the instructions provided in the Kinase PI 3-Kinase HTRF Assay. The kinase reaction was carried out in white 384-well plates (Proxiplate-384 plus), 0.5 μl of DMSO (the concentration was consistent with the highest concentration of DMSO for the test compounds) was added to each of the two control wells with and without enzyme, and then 0.5 μl of a series of different concentrations of the test compounds was added to each well to be tested. The kinase reaction liquid (10 μM substrate PIP2, 0.5 ng PI3K (p110α)) was added to the control well containing enzyme and the test wells, while only working reaction liquid (10 μM substrate PIP2) was added to the control well without enzyme, and finally, 5 μM ATP working reaction liquid was added to activate the reaction. After the reaction was carried out at room temperature for 30 min, the stop solution was added to each well to terminate the kinase reaction. After the mixture was fully mixed, the detection liquid was added to each well and fully mixed. The plate was sealed with Parafilm and placed in the dark. After incubated overnight, the mixture was detected.
(§2) The IC50 value was calculated through the GraphPad software after plotting the relative inhibitory rate versus concentration.

mTOR kinase = molecular target: T2, mTOR kinase (Homo sapiens, UniProt P42345); assay: mTOR kinase assay; format: biochemical; conditions: in vitro enzyme activity assay; ATP 100 μM; read-out: mTOR enzyme activity_IC50
T2 construct: made in house
Description: 2. Experimental Procedures and Methods of the mTOR Kinase Assay
The objective was to evaluate the inhibitory effect of the subject samples on the mTOR kinase activity at molecular level.
as §1
The mTOR Kinase Assay (384 wells) was purchased from PerkinElmer company; the mTOR kinase was made in our lab.
Each solution was prepared according to the instructions provided in the mTOR Kinase Assay. The kinase reaction was carried out in white 384-well plates (Proxiplate-384 plus). 2.5 μl of DMSO (the concentration was consistent with the highest concentration of DMSO for the test compounds) was added to each of the two control wells with and without enzyme, and then 2.5 μl of a series of different concentrations of the test compounds was added to each test well. ULight-4E-BP1 (Thr37/46) PeptideATP mix (the final concentration of ATP was 100 μM) and 5 μl of mTOR kinase were added to the control well containing enzyme as well as the test wells, and fully mixed. The plate was sealed with Parafilm and incubated for 2 h. Then 5 μl of stop solution was added and incubated for 5 minutes. Afterwards, 5 μl of Detection Mix (Eu-anti-phospho-4E-BP1 (Thr37/46) Antibody, the final concentration was 2 nM) was added and incubated for 1 h, and then the mixture was detected.
as §2

COc1ncc(-c2ccc3ncc(Cl)c(=O)n3c2)cc1NS(=O)(=O)c1ccc(F)cc1F [compound 132, N-(5-(3-chloro-4-oxo-4H-pyrido[1,2-a]pyrimidin-7-yl)-2-methoxypyridin-3-yl)-2,4-difluorobenzsulfamide]
inhibition at 0.5 µM (MCF-7 cells; read-out: % inhibition AKT): 93% | inhibition at 0.5 µM (MCF-7 cells; read-out: % inhibition p70s6k): 88.8% | IC50 (MCF-7 cells; read-out: IC50 p-AKT): ≤ 50 nM | IC50 (MCF-7 cells; read-out: IC50 p-p70S6K): 100 to 250 nM | IC50 (PI3K (p110α) kinase): 1 to 10 nM | IC50 (mTOR kinase): 1 to 10 nM

COc1ncc(-c2ccc3ncc(Cl)c(=O)n3c2)cc1NS(=O)(=O)c1sc(C)nc1C [compound 153]
inhibition at 0.25 µM (MCF-7 cells; read-out: % inhibition AKT): 91.6% | inhibition at 0.25 µM (MCF-7 cells; read-out: % inhibition p70s6k): 83.5% | IC50 (MCF-7 cells; read-out: IC50 p-AKT): ≤ 50 nM | IC50 (MCF-7 cells; read-out: IC50 p-p70S6K): ≤ 50 nM | IC50 (PI3K (p110α) kinase): ≤ 1 nM | IC50 (mTOR kinase): 1 to 10 nM

CCOc1cnc2ccc(-c3cnc(OC)c(NS(=O)(=O)c4ccc(Cl)s4)c3)cn2c1=O [compound 174]
inhibition at 0.25 µM (MCF-7 cells; read-out: % inhibition AKT): 92.5% | inhibition at 0.25 µM (MCF-7 cells; read-out: % inhibition p70s6k): 78.4% | IC50 (MCF-7 cells; read-out: IC50 p-AKT): ≤ 50 nM | IC50 (MCF-7 cells; read-out: IC50 p-p70S6K): ≤ 50 nM | IC50 (PI3K (p110α) kinase): ≤ 1 nM | IC50 (mTOR kinase): 50 to 100 nM

COc1ncc(-c2ccc3ncc(Cl)c(=O)n3c2)cc1NS(=O)(=O)c1ccc(Cl)s1 [compound 144]
inhibition at 0.5 µM (MCF-7 cells; read-out: % inhibition AKT): 95.8% | inhibition at 0.5 µM (MCF-7 cells; read-out: % inhibition p70s6k): 89.4% | IC50 (MCF-7 cells; read-out: IC50 p-AKT): ≤ 50 nM | IC50 (MCF-7 cells; read-out: IC50 p-p70S6K): ≤ 50 nM | IC50 (PI3K (p110α) kinase): ≤ 1 nM | IC50 (mTOR kinase): ≤ 1 nM

COc1ncc(-c2ccc3nccc(=O)n3c2)cc1NS(=O)(=O)c1ccc(Cl)s1 [compound 36]
inhibition at 0.5 µM (MCF-7 cells; read-out: % inhibition AKT): 96.4% | inhibition at 0.5 µM (MCF-7 cells; read-out: % inhibition p70s6k): 94.7% | IC50 (MCF-7 cells; read-out: IC50 p-AKT): ≤ 50 nM | IC50 (MCF-7 cells; read-out: IC50 p-p70S6K): ≤ 50 nM | IC50 (PI3K (p110α) kinase): 1 to 10 nM | IC50 (mTOR kinase): 1 to 10 nM

COc1ncc(-c2ccc3ncc(OC)c(=O)n3c2)cc1NS(=O)(=O)c1ccc(F)cc1Cl [compound 104]
inhibition at 0.5 µM (MCF-7 cells; read-out: % inhibition AKT): 95.2% | inhibition at 0.5 µM (MCF-7 cells; read-out: % inhibition p70s6k): 91.7% | IC50 (MCF-7 cells; read-out: IC50 p-AKT): ≤ 50 nM | IC50 (MCF-7 cells; read-out: IC50 p-p70S6K): ≤ 50 nM | IC50 (PI3K (p110α) kinase): 1 to 10 nM | IC50 (mTOR kinase): 10 to 50 nM

COc1ncc(-c2ccc3ncc(Cl)c(=O)n3c2)cc1NS(=O)(=O)c1c(Cl)cccc1Cl [compound 149]
inhibition at 0.25 µM (MCF-7 cells; read-out: % inhibition AKT): 92% | inhibition at 0.25 µM (MCF-7 cells; read-out: % inhibition p70s6k): 80.7% | IC50 (MCF-7 cells; read-out: IC50 p-AKT): ≤ 50 nM | IC50 (MCF-7 cells; read-out: IC50 p-p70S6K): ≤ 50 nM | IC50 (PI3K (p110α) kinase): 1 to 10 nM | IC50 (mTOR kinase): 1 to 10 nM

COc1ncc(-c2ccc3nccc(=O)n3c2)cc1NS(=O)(=O)c1ccccc1Cl [compound 30]
inhibition at 1 µM (MCF-7 cells; read-out: % inhibition AKT): 95% | inhibition at 1 µM (MCF-7 cells; read-out: % inhibition p70s6k): 93.4% | IC50 (MCF-7 cells; read-out: IC50 p-AKT): ≤ 50 nM | IC50 (MCF-7 cells; read-out: IC50 p-p70S6K): 50 to 100 nM | IC50 (PI3K (p110α) kinase): ≤ 1 nM | IC50 (mTOR kinase): 10 to 50 nM

COc1ncc(-c2ccc3nccc(=O)n3c2)cc1NS(=O)(=O)c1ccc(F)cc1Cl [compound 25]
inhibition at 1 µM (MCF-7 cells; read-out: % inhibition AKT): 95.1% | inhibition at 1 µM (MCF-7 cells; read-out: % inhibition p70s6k): 94.1% | IC50 (MCF-7 cells; read-out: IC50 p-AKT): ≤ 50 nM | IC50 (MCF-7 cells; read-out: IC50 p-p70S6K): 50 to 100 nM | IC50 (PI3K (p110α) kinase): 1 to 10 nM | IC50 (mTOR kinase): 10 to 50 nM

COc1ncc(-c2ccc3nccc(=O)n3c2)cc1NS(=O)(=O)c1ccc(C)cc1F [compound 28]
inhibition at 1 µM (MCF-7 cells; read-out: % inhibition AKT): 96.2% | inhibition at 1 µM (MCF-7 cells; read-out: % inhibition p70s6k): 93.9% | IC50 (MCF-7 cells; read-out: IC50 p-AKT): ≤ 50 nM | IC50 (MCF-7 cells; read-out: IC50 p-p70S6K): 50 to 100 nM | IC50 (PI3K (p110α) kinase): 1 to 10 nM | IC50 (mTOR kinase): 10 to 50 nM

COc1ncc(-c2ccc3nccc(=O)n3c2)cc1NS(=O)(=O)c1ccc(F)cc1F [compound 1, 2,4-difluoro-N-(2-methoxy-5-(4-oxo-4H-pyrido[1,2-a]pyrimidin-7-yl)pyridin-3-yl)benzsulfamide]
inhibition at 1 µM (MCF-7 cells; read-out: % inhibition AKT): 97.5% | inhibition at 1 µM (MCF-7 cells; read-out: % inhibition p70s6k): 42.4% | IC50 (MCF-7 cells; read-out: IC50 p-AKT): ≤ 50 nM | IC50 (MCF-7 cells; read-out: IC50 p-p70S6K): 50 to 100 nM | IC50 (PI3K (p110α) kinase): 1 to 10 nM | IC50 (mTOR kinase): 10 to 50 nM

COc1ncc(-c2ccc3ncc(F)c(=O)n3c2)cc1NS(=O)(=O)c1ccc(F)cc1F [compound 61, 2,4-difluoro-N-(5-(3-fluoro-4-oxo-4H-pyrido[1,2-a]pyrimidin-7-yl)-2-methoxypyridin-3-yl)benzsulfamide]
inhibition at 0.5 µM (MCF-7 cells; read-out: % inhibition AKT): 78.9% | inhibition at 0.5 µM (MCF-7 cells; read-out: % inhibition p70s6k): 89.7% | IC50 (MCF-7 cells; read-out: IC50 p-AKT): ≤ 50 nM | IC50 (MCF-7 cells; read-out: IC50 p-p70S6K): ≤ 50 nM | IC50 (PI3K (p110α) kinase): 10 to 50 nM | IC50 (mTOR kinase): ≤ 1 nM

COc1ncc(-c2ccc3nccc(=O)n3c2)cc1NS(=O)(=O)c1ccc(F)cc1C [compound 26]
inhibition at 1 µM (MCF-7 cells; read-out: % inhibition AKT): 95.6% | inhibition at 1 µM (MCF-7 cells; read-out: % inhibition p70s6k): 93.7% | IC50 (MCF-7 cells; read-out: IC50 p-AKT): ≤ 50 nM | IC50 (MCF-7 cells; read-out: IC50 p-p70S6K): 50 to 100 nM | IC50 (PI3K (p110α) kinase): 1 to 10 nM | IC50 (mTOR kinase): 10 to 50 nM

COc1ncc(-c2ccc3ncc(C)c(=O)n3c2)cc1NS(=O)(=O)c1ccc(F)cc1Cl [compound 83]
inhibition at 0.5 µM (MCF-7 cells; read-out: % inhibition AKT): 95% | inhibition at 0.5 µM (MCF-7 cells; read-out: % inhibition p70s6k): 87.9% | IC50 (MCF-7 cells; read-out: IC50 p-AKT): ≤ 50 nM | IC50 (MCF-7 cells; read-out: IC50 p-p70S6K): 50 to 100 nM | IC50 (PI3K (p110α) kinase): ≤ 1 nM | IC50 (mTOR kinase): 1 to 10 nM

COc1ncc(-c2ccc3ncc(C)c(=O)n3c2)cc1NS(=O)(=O)c1ccc(F)cc1F [compound 81, 2,4-difluoro-N-(2-methoxy-5-(3-methyl-4-oxo-4H-pyrido[1,2-a]pyrimidin-7-yl)pyridin-3-yl)benzsulfamide]
inhibition at 0.5 µM (MCF-7 cells; read-out: % inhibition AKT): 90.1% | inhibition at 0.5 µM (MCF-7 cells; read-out: % inhibition p70s6k): 85.5% | IC50 (MCF-7 cells; read-out: IC50 p-AKT): ≤ 50 nM | IC50 (MCF-7 cells; read-out: IC50 p-p70S6K): 100 to 250 nM | IC50 (PI3K (p110α) kinase): 1 to 10 nM | IC50 (mTOR kinase): 1 to 10 nM

COc1ncc(-c2ccc3ncc(Cl)c(=O)n3c2)cc1NS(=O)(=O)c1ccc(F)cc1Cl [compound 135]
inhibition at 0.5 µM (MCF-7 cells; read-out: % inhibition AKT): 95.2% | inhibition at 0.5 µM (MCF-7 cells; read-out: % inhibition p70s6k): 87.6% | IC50 (MCF-7 cells; read-out: IC50 p-AKT): ≤ 50 nM | IC50 (MCF-7 cells; read-out: IC50 p-p70S6K): 50 to 100 nM | IC50 (PI3K (p110α) kinase): ≤ 1 nM | IC50 (mTOR kinase): 1 to 10 nM
